{
  "source": "the NIST ThermoML archive (doi:10.1021/je7001122)",
  "details": "Liquid",
  "note": "Where “and” joins values, the source holds several entries; their conditions need not be identical. Identical values can stand only once. Numbers after ± are expanded uncertainties.",
  "data": [
    {"smiles": "CCCCCCCCCCCCCCCCCCCCCCCC", "note": "[tetracosane]", "values": [
      {"measurement": "vapor or sublimation pressure", "setting": "333.46 K, Transpiration method", "value": "4.3e-06 ± 5e-07", "unit": "kPa"},
      {"measurement": "vapor or sublimation pressure", "setting": "353.43 K, Transpiration method", "value": "4.35e-05 ± 2.4e-06", "unit": "kPa"},
      {"measurement": "vapor or sublimation pressure", "setting": "353.97 K, Transpiration method", "value": "4.5e-05 ± 2.5e-06", "unit": "kPa"},
      {"measurement": "vapor or sublimation pressure", "setting": "373.17 K, Diaphragm manometer", "value": "0.000296 ± 2.1e-05", "unit": "kPa"},
      {"measurement": "vapor or sublimation pressure", "setting": "373.17 K, Transpiration method", "value": "0.000307 ± 1.6e-05", "unit": "kPa"},
      {"measurement": "vapor or sublimation pressure", "setting": "373.61 K, Diaphragm manometer", "value": "0.000322 ± 2.2e-05", "unit": "kPa"},
      {"measurement": "vapor or sublimation pressure", "setting": "373.61 K, Transpiration method", "value": "0.000316 ± 1.7e-05", "unit": "kPa"},
      {"measurement": "vapor or sublimation pressure", "setting": "379.15 K, Diaphragm manometer", "value": "0.000531 ± 2.8e-05", "unit": "kPa"},
      {"measurement": "vapor or sublimation pressure", "setting": "379.15 K, Transpiration method", "value": "0.000524 ± 3.1e-05", "unit": "kPa"},
      {"measurement": "vapor or sublimation pressure", "setting": "393.2 K, Diaphragm manometer", "value": "0.001727 ± 5.9e-05", "unit": "kPa"},
      {"measurement": "vapor or sublimation pressure", "setting": "393.2 K, Transpiration method", "value": "0.001725 ± 9e-05 kPa and 0.001721 ± 9e-05 kPa"},
      {"measurement": "vapor or sublimation pressure", "setting": "397.55 K, Diaphragm manometer", "value": "0.002432 ± 0.0001", "unit": "kPa"},
      {"measurement": "vapor or sublimation pressure", "setting": "397.55 K, Transpiration method", "value": "0.002406 ± 0.00014", "unit": "kPa"},
      {"measurement": "vapor or sublimation pressure", "setting": "414.68 K, Diaphragm manometer", "value": "0.008547 ± 0.00027", "unit": "kPa"},
      {"measurement": "vapor or sublimation pressure", "setting": "414.68 K, Transpiration method", "value": "0.00843 ± 0.00045", "unit": "kPa"},
      {"measurement": "vapor or sublimation pressure", "setting": "417.75 K, Diaphragm manometer", "value": "0.01055 ± 0.00032", "unit": "kPa"},
      {"measurement": "vapor or sublimation pressure", "setting": "417.75 K, Transpiration method", "value": "0.0105 ± 0.00055", "unit": "kPa"},
      {"measurement": "vapor or sublimation pressure", "setting": "433.1 K, Diaphragm manometer", "value": "0.02857 ± 0.0009", "unit": "kPa"},
      {"measurement": "vapor or sublimation pressure", "setting": "452.6 K, Diaphragm manometer", "value": "0.08931 ± 0.0025", "unit": "kPa"}
    ]},
    {"smiles": "CCCCCCCCCC", "note": "[decane]", "values": [
      {"measurement": "vapor or sublimation pressure", "setting": "323.94 K, Transpiration method", "value": "0.9556 ± 0.054", "unit": "kPa"},
      {"measurement": "vapor or sublimation pressure", "setting": "353.57 K, Transpiration method", "value": "4.252 ± 0.22", "unit": "kPa"},
      {"measurement": "vapor or sublimation pressure", "setting": "373.15 K, Transpiration method", "value": "10.05 ± 0.52", "unit": "kPa"},
      {"measurement": "vapor or sublimation pressure", "setting": "402.36 K, Transpiration method", "value": "29.48 ± 1.5", "unit": "kPa"},
      {"measurement": "vapor or sublimation pressure", "setting": "402.48 K, Transpiration method", "value": "29.36 ± 1.5", "unit": "kPa"}
    ]},
    {"smiles": "CCCCCCCCCCCCCCCCCCCCCCCCCCCC", "note": "[octacosane]", "values": [
      {"measurement": "vapor or sublimation pressure", "setting": "354.01 K, Transpiration method", "value": "2.14e-06 ± 2.6e-07", "unit": "kPa"},
      {"measurement": "vapor or sublimation pressure", "setting": "373.92 K, Transpiration method", "value": "1.77e-05 ± 1.2e-06 kPa and 1.8e-05 ± 1.2e-06 kPa"},
      {"measurement": "vapor or sublimation pressure", "setting": "393.65 K, Transpiration method", "value": "0.000122 ± 7e-06 kPa and 0.000126 ± 7e-06 kPa"},
      {"measurement": "vapor or sublimation pressure", "setting": "413.5 K, Transpiration method", "value": "0.000633 ± 3.5e-05 kPa and 0.000651 ± 3.6e-05 kPa and 0.00063 ± 3.5e-05 kPa"},
      {"measurement": "vapor or sublimation pressure", "setting": "433.32 K, Transpiration method", "value": "0.00293 ± 0.00016", "unit": "kPa"},
      {"measurement": "vapor or sublimation pressure", "setting": "453.28 K, Transpiration method", "value": "0.01264 ± 0.00068", "unit": "kPa"},
      {"measurement": "vapor or sublimation pressure", "setting": "473.64 K, Transpiration method", "value": "0.04404 ± 0.0024", "unit": "kPa"},
      {"measurement": "vapor or sublimation pressure", "setting": "494.8 K, Transpiration method", "value": "0.1554 ± 0.0081", "unit": "kPa"},
      {"measurement": "vapor or sublimation pressure", "setting": "516.89 K, Transpiration method", "value": "0.4272 ± 0.05", "unit": "kPa"}
    ]}
  ]
}
